Measurements reported in US4820804A, “Analogs of [1,7-di-alanine, des-19-leucine]calcitonin” (Rorer Pharmaceutical Corporation, priority 1987, dated 1989).
Residues, ends and D or L forms follow the SMILES beside them. *: point of attachment. Propionyl = CCC(=O)*

What was measured:
[1] = system: serum calcium concentration; conditions: rat, in vivo, sc
Procedure: SCT and synthetic salmon calcitonin standard. Rats were divided into four groups of seven animals, and each group was assigned at random to a dose of standard or test solution. Low and high doses were chosen from the linear portion of the dose-response curve. For the salmon calcitonin standard, the values were 0.7 and 2.1 mcg. peptide/100 g. BW. Peptides were given by subcutaneous injection (0.2 ml/100 g. BW) and blood was withdrawn 1 hour later for serum calcium determination. Sera are processed and analyzed within two hours of collection. Results were analyzed within two hours of collection.

[2] = Independent determination of the potency of the standard salmon calcitonin; conditions: standard used in the rat assay, independently determined
Procedure: The biological potency of [N-alpha-Propionyl-1,7-Di-Ala,Des-19-Leu] salmon calcitonin was determined by comparing the reduction of serum calcium concentration which followed administration by graded doses of [N-alpha-Propionyl-1,7-Di-Ala,Des-19-Leu] SCT and synthetic salmon calcitonin standard. Rats were divided into four groups of seven animals, and each group was assigned at random to a dose of standard or test solution. Low and high doses were chosen from the linear portion of the dose-response curve. For the salmon calcitonin standard, the values were 0.7 and 2.1 mcg. peptide/100 g. BW. Peptides were given by subcutaneous injection (0.2 ml/100 g. BW) and blood was withdrawn 1 hour later for serum calcium determination. Sera are processed and analyzed within two hours of collection. […]. Results were analyzed by a 2×2 parallel line assay [Gaddum, J. H., J. Pharm. Pharmacol., 6, 345 (1953)]. The standard salmon calcitonin used was independently determined to contain greater than 4,000 IU/mg.

| Compound | Potency [1] [Iu/mg] | potency content of standard salmon calcitonin [2] |
| --- | --- | --- |
| CC(C)C[C@H](NC(=O)[C@H](CCCCN)NC(=O)CNC(=O)[C@H](CC(C)C)NC(=O)[C@@H](NC(=O)[C@H](C)NC(=O)[C@@H](NC(=O)[C@H](CO)NC(=O)[C@H](CC(C)C)NC(=O)[C@H](CC(N)=O)NC(=O)[C@H](CO)NC(=O)[C@H](C)N)[C@@H](C)O)C(C)C)C(=O)N[C@@H](CO)C(=O)N[C@@H](CCC(N)=O)C(=O)N[C@@H](CCC(=O)O)C(=O)N[C@@H](CC(C)C)C(=O)N[C@@H](Cc1c[nH]cn1)C(=O)N[C@@H](CCCCN)C(=O)N[C@@H](CCC(N)=O)C(=O)N[C@H](C(=O)N[C@@H](Cc1ccc(O)cc1)C(=O)N1CCC[C@H]1C(=O)N[C@@H](CCCNC(=N)N)C(=O)N[C@H](C(=O)N[C@@H](CC(N)=O)C(=O)N[C@H](C(=O)NCC(=O)N[C@@H](CO)C(=O)NCC(=O)N[C@H](C(=O)N1CCC[C@H]1C(N)=O)[C@@H](C)O)[C@@H](C)O)[C@@H](C)O)[C@@H](C)O [Parent, [1,7 Di-Alanine, Des-19-Leucine]Salmon Calcitonin] (H-ASNLSTAVLGKLSQELHKQTYPRTNTGSGTP-NH2) | 7400 |  |
| Salmon calcitonin [standard salmon calcitonin] |  | greater than 4,000 IU/mg |
| CCC(=O)N[C@@H](C)C(=O)N[C@@H](CO)C(=O)N[C@@H](CC(N)=O)C(=O)N[C@@H](CC(C)C)C(=O)N[C@@H](CO)C(=O)N[C@H](C(=O)N[C@@H](C)C(=O)N[C@H](C(=O)N[C@@H](CC(C)C)C(=O)NCC(=O)N[C@@H](CCCCN)C(=O)N[C@@H](CC(C)C)C(=O)N[C@@H](CO)C(=O)N[C@@H](CCC(N)=O)C(=O)N[C@@H](CCC(=O)O)C(=O)N[C@@H](CC(C)C)C(=O)N[C@@H](Cc1c[nH]cn1)C(=O)N[C@@H](CCCCN)C(=O)N[C@@H](CCC(N)=O)C(=O)N[C@H](C(=O)N[C@@H](Cc1ccc(O)cc1)C(=O)N1CCC[C@H]1C(=O)N[C@@H](CCCNC(=N)N)C(=O)N[C@H](C(=O)N[C@@H](CC(N)=O)C(=O)N[C@H](C(=O)NCC(=O)N[C@@H](CO)C(=O)NCC(=O)N[C@H](C(=O)N1CCC[C@H]1C(N)=O)[C@@H](C)O)[C@@H](C)O)[C@@H](C)O)[C@@H](C)O)C(C)C)[C@@H](C)O [N--Alpha-Propionyl, [N alpha-Propionyl, 1,7-Di-Alanine, Des-19-Leucine] salmon calcitonin] (Propionyl-ASNLSTAVLGKLSQELHKQTYPRTNTGSGTP-NH2) | 7600 |  |
| CCC(=O)N[C@@H](CO)C(=O)N[C@@H](CC(N)=O)C(=O)N[C@@H](CC(C)C)C(=O)N[C@@H](CO)C(=O)N[C@H](C(=O)N[C@@H](C)C(=O)N[C@H](C(=O)N[C@@H](CC(C)C)C(=O)NCC(=O)N[C@@H](CCCCN)C(=O)N[C@@H](CC(C)C)C(=O)N[C@@H](CO)C(=O)N[C@@H](CCC(N)=O)C(=O)N[C@@H](CCC(=O)O)C(=O)N[C@@H](CC(C)C)C(=O)N[C@@H](Cc1c[nH]cn1)C(=O)N[C@@H](CCCCN)C(=O)N[C@@H](CCC(N)=O)C(=O)N[C@H](C(=O)N[C@@H](Cc1ccc(O)cc1)C(=O)N1CCC[C@H]1C(=O)N[C@@H](CCCNC(=N)N)C(=O)N[C@H](C(=O)N[C@@H](CC(N)=O)C(=O)N[C@H](C(=O)NCC(=O)N[C@@H](CO)C(=O)NCC(=O)N[C@H](C(=O)N1CCC[C@H]1C(N)=O)[C@@H](C)O)[C@@H](C)O)[C@@H](C)O)[C@@H](C)O)C(C)C)[C@@H](C)O [Des-1-Amino] (Propionyl-SNLSTAVLGKLSQELHKQTYPRTNTGSGTP-NH2) | 7300 |  |
